Experimental data: patent publication US20120244567A1, “HUMAN EMBRYONIC STEM CELLS FOR HIGH THROUGHOUT DRUG SCREENING” (BUCK INSTITUTE FOR RESEARCH ON AGING, priority 2009, published 2012)
Structures can show the parent of a compound that is named as a salt. Where two headings read alike, the source gives them in different places.

System: dopaminergic neurons
Method: RNAs isolated from NSCs and neurons with and without drug treatments were hybridized to Illumina HumanRef-8 BeadChip (Illumina, Inc., San Diego, Calif., performed by Microarray core facility at the Burnham Institute for Medical Research). The Illumina array data were normalized by the quantile method, and then transformed log 2 ratio values for a zero mean for expression values of each gene across all samples. The statistical and bioinformatics analyses were conducted by using R and the bioconductor package (www.bioconductor.org). The gene set enrichment analysis was conducted using the GSEA software (www.broad.mit.edu/gsea).

[1] = Amiloride sensitive Na channels, 4 hours of exposure
[2] = Amine transporters, 4 hours of exposure
[3] = Ca activated K channels, 4 hours of exposure
[4] = Calcium channels, 4 hours of exposure
[5] = Cl channels, 4 hours of exposure
[6] = Delayed rectifier K channels, 4 hours of exposure
[7] = H ion transporters, 4 hours of exposure
[8] = Rectifier K channels, 4 hours of exposure
[9] = Voltage gated Na channels, 4 hours of exposure

CCCCc1oc2ccccc2c1C(=O)c1cc(I)c(OCCN(CC)CC)c(I)c1 [Amiodarone Hydrochloride]
ACCN1 gene expression, Treated DA Neuron [1]: 387.4 | ACCN2 gene expression, Treated DA Neuron [1]: 862.7 | ACCN3 gene expression, Treated DA Neuron [1]: 35.7 | SLC1A2 gene expression, Treated DA Neuron [2]: 809.7 | SLC1A3 gene expression, Treated DA Neuron [2]: 2926 | SLC6A3 gene expression, Treated DA Neuron [2]: 23.4 | SLC6A9 gene expression, Treated DA Neuron [2]: 36570.5 | SLC6A12 gene expression, Treated DA Neuron [2]: 10.8 | ATP1A1 gene expression, Treated DA Neuron (Amine transporters, first line for this gene, 4 hours of exposure): 426.9 | ATP1A1 gene expression, Treated DA Neuron (Amine transporters, second line for this gene, 4 hours of exposure): 471 | KCNMB1 gene expression, Treated DA Neuron [3]: 44.8 | KCNN1 gene expression, Treated DA Neuron [3]: 48.4 | KCNN2 gene expression, Treated DA Neuron [3]: 55.6 | KCNN3 gene expression, Treated DA Neuron [3]: 181.7 | CACNA1A gene expression, Treated DA Neuron [4]: 64.4 | CACNA1C gene expression, Treated DA Neuron [4]: 146.9 | CACNB2 gene expression, Treated DA Neuron [4]: 155.2 | CACNG2 gene expression, Treated DA Neuron [4]: 123.8 | CLCN2 gene expression, Treated DA Neuron [5]: 24 | CLCN3 gene expression, Treated DA Neuron [5]: 541.2 | CLCN6 gene expression, Treated DA Neuron [5]: 998.5 | CLCN7 gene expression, Treated DA Neuron [5]: 1261 | CLIC1 gene expression, Treated DA Neuron [5]: 22.9 | KCNA5 gene expression, Treated DA Neuron [6]: 99.9 | KCNB1 gene expression, Treated DA Neuron [6]: 145.4 | KCNB2 gene expression, Treated DA Neuron [6]: 94.5 | ATP5B gene expression, Treated DA Neuron [7]: 5217.1 | ATP6V0A2 gene expression, Treated DA Neuron [7]: 131.3 | ATP6V0D1 gene expression, Treated DA Neuron [7]: 2920.7 | ATP6V1A gene expression, Treated DA Neuron [7]: 2621.5 | ATP6V1B2 gene expression, Treated DA Neuron [7]: 724.8 | SLC2A1 gene expression, Treated DA Neuron [7]: 87.1 | SLC2A11 gene expression, Treated DA Neuron [7]: .9 | SLC35B1 gene expression, Treated DA Neuron [7]: 1450.4 | KCNC4 gene expression, Treated DA Neuron [8]: 58.7 | KCND2 gene expression, Treated DA Neuron [8]: 269.9 | KCNF1 gene expression, Treated DA Neuron [8]: 479.7 | KCNG1 gene expression, Treated DA Neuron [8]: 351 | KCNJ4 gene expression, Treated DA Neuron [8]: 66.1 | KCNJ6 gene expression, Treated DA Neuron [8]: 297.7 | KCNJ11 gene expression, Treated DA Neuron [8]: 44.4 | KCNQ3 gene expression, Treated DA Neuron [8]: 23.2 | KCNQ2 gene expression, Treated DA Neuron (Rectifier K channels, first line for this gene, 4 hours of exposure): 1753.5 | KCNQ2 gene expression, Treated DA Neuron (Rectifier K channels, second line for this gene, 4 hours of exposure): 434.4 | SCN1A gene expression, Treated DA Neuron [9]: 115.6 | SCN3A gene expression, Treated DA Neuron [9]: 60.4 | SCN9A gene expression, Treated DA Neuron [9]: 245.7 | AFF1 expression, Treated Neuron (four hours after exposure): 1 | ARID3A expression, Treated Neuron (four hours after exposure): 201 | ASCL2 expression, Treated Neuron (four hours after exposure): 1 | DDIT3 expression, Treated Neuron (four hours after exposure): 170 | DLX2 expression, Treated Neuron (four hours after exposure): 1 | E2F2 expression, Treated Neuron (four hours after exposure): 63.2 | E2F7 expression, Treated Neuron (four hours after exposure): 43 | E2F8 expression, Treated Neuron (four hours after exposure): 1 | EGR1 expression, Treated Neuron (four hours after exposure): 109 | EGR2 expression, Treated Neuron (four hours after exposure): 1 | ELF4 expression, Treated Neuron (four hours after exposure): 1 | ELF5 expression, Treated Neuron (four hours after exposure): 1 | ELK3 expression, Treated Neuron (four hours after exposure): 1 | ELK4 expression, Treated Neuron (four hours after exposure): 1 | EN1 expression, Treated Neuron (four hours after exposure): 1 | ERG expression, Treated Neuron (four hours after exposure): 1 | ETS1 expression, Treated Neuron (four hours after exposure): 1 | ETV1 expression, Treated Neuron (four hours after exposure): 1 | ETV4 expression, Treated Neuron (four hours after exposure): 1 | FLI1 expression, Treated Neuron (four hours after exposure): 11.3 | FOS expression, Treated Neuron (four hours after exposure): 1980 | FOSB expression, Treated Neuron (four hours after exposure): 346 | FOXA2 expression, Treated Neuron (four hours after exposure): 1 | FOXC1 expression, Treated Neuron (four hours after exposure): 32.6 | FOXD1 expression, Treated Neuron (four hours after exposure): 1 | FOXF2 expression, Treated Neuron (four hours after exposure): 1 | FOXL2 expression, Treated Neuron (four hours after exposure): 1 | FOXM1 expression, Treated Neuron (four hours after exposure): 27.7 | GATA2 expression, Treated Neuron (four hours after exposure): 1 | GLI2 expression, Treated Neuron (four hours after exposure): 5.2 | HCLS1 expression, Treated Neuron (four hours after exposure): 1 | HEY2 expression, Treated Neuron (four hours after exposure): 1 | HIRA expression, Treated Neuron (four hours after exposure): 24.2 | HMGB2 expression, Treated Neuron (four hours after exposure): 163 | HOXA13 expression, Treated Neuron (four hours after exposure): 1 | HOXB1 expression, Treated Neuron (four hours after exposure): 1 | HOXB2 expression, Treated Neuron (four hours after exposure): 24 | HOXB3 expression, Treated Neuron (four hours after exposure): 1 | HOXB4 expression, Treated Neuron (four hours after exposure): 1 | HOXB5 expression, Treated Neuron (four hours after exposure): 1 | HOXD3 expression, Treated Neuron (four hours after exposure): 1 | L3MBTL expression, Treated Neuron (four hours after exposure): 97.7 | LHX8 expression, Treated Neuron (four hours after exposure): 1 | MEF2C expression, Treated Neuron (four hours after exposure): 49.8 | MEOX1 expression, Treated Neuron (four hours after exposure): 1 | MSX2 expression, Treated Neuron (four hours after exposure): 1 | MYEF2 expression, Treated Neuron (four hours after exposure): 25.3 | NFATC3 expression, Treated Neuron (four hours after exposure): 1 | NFATC4 expression, Treated Neuron (four hours after exposure): 1 | NFKB2 expression, Treated Neuron (four hours after exposure): 5.3 | NR1D2 expression, Treated Neuron (four hours after exposure): 1 | NR2C2 expression, Treated Neuron (four hours after exposure): 5.7 | NR4A2 expression, Treated Neuron (four hours after exposure): 212 | NRK expression, Treated Neuron (four hours after exposure): 1 | PAX8 expression, Treated Neuron (four hours after exposure): 1 | PBX2 expression, Treated Neuron (four hours after exposure): 1 | PRDM1 expression, Treated Neuron (four hours after exposure): 1 | PRRX2 expression, Treated Neuron (four hours after exposure): 1 | RELB expression, Treated Neuron (four hours after exposure): 31.9 | RUNX1 expression, Treated Neuron (four hours after exposure): 1 | SALL1 expression, Treated Neuron (four hours after exposure): 1 | SIX4 expression, Treated Neuron (four hours after exposure): 5.7 | STAT6 expression, Treated Neuron (four hours after exposure): 1 | TAF5L expression, Treated Neuron (four hours after exposure): 17.5 | TAF13 expression, Treated Neuron (four hours after exposure): 1 | TBX2 expression, Treated Neuron (four hours after exposure): 1 | TEAD4 expression, Treated Neuron (four hours after exposure): 1 | TEF expression, Treated Neuron (four hours after exposure): 23.5 | TGIF1 expression, Treated Neuron (four hours after exposure): 1 | TP53 expression, Treated Neuron (four hours after exposure): 23.7 | ZNF85 expression, Treated Neuron (four hours after exposure): 5.6 | ZNF197 expression, Treated Neuron (four hours after exposure): 5.1 | ZNF274 expression, Treated Neuron (four hours after exposure): 1 | ZNF367 expression, Treated Neuron (four hours after exposure): 1 | ZSCAN29 expression, Treated Neuron (four hours after exposure): 1
